From patent US20260000600A1, “PHARMACEUTICAL COMPOSITION FOR PREVENTING OR TREATING INFLAMMATORY DISEASES COMPRISING PEGYLATED BILIRUBIN” (BILIX CO., LTD., priority 2022, published 2026)

Experiments:
[1] = tested on: IMQ-induced psoriasis mouse model; experiment: IMQ-induced psoriasis mouse model; assay type: in vivo, C57BL/6 male mouse; settings: 0.05% Clobetasol propionate, 62.5 mg/animal, topical daily; Vehicle 10.50±0.47
Description: An IMQ-induced psoriasis mouse model was created by applying Aldara™ (imiquimod, IMQ) cream to the back skin of an 8-week-old C57BL/6 male mouse a total of 7 times from Day 0 to Day 6. With respect to a normal group in which IMQ cream was not applied (Normal group), as negative control groups, a group in which no additional substances were applied in the process of inducing psoriasis (No Treatment group) and a group in which excipients were applied to the skin (Vehicle group), and as a positive control group, a group in which the previously-approved drug Betabate was applied (Clobetasol propionate group, 0.05% Clobetasol propionate, 62.5 mg/animal), the test substance Brixelle (30 mg/kg) was applied to the skin every day from Day 0, thus to evaluate its effectiveness. Clinical symptoms were evaluated during the process of inducing psoriasis, and skin tissues were secured after the survival test was completed for further analysis.
To quantify the clinical symptoms of psoriasis, for three (3) clinical index items including 1) erythema (redness), 2) scaling and 3) skin thickness, a clinical score was measured on a scale out of 4 (modified psoriasis area and severity index, PASI). […] The results of the graph were expressed as mean±SEM. […]

[2] = tested on: DNFB-induced contact dermatitis mouse model; experiment: DNFB-induced contact dermatitis mouse model; assay type: in vivo, C57BL/6 NC/Nga male mice; settings: 0.1% Dexamethasone, 62.5 mg/animal, topical daily; Vehicle 0.94±0.01
Description: A DNFB-induced contact dermatitis mouse model was created using 6 to 10-week-old C57BL/6 NC/Nga male mice and Mouse 2, 4 Dinitrofluorobenzene (DNFB). On Days 0 and 1, 0.5% DNFB solution (acetone:olive oil=4:1) was applied to the back skin to sensitize them, and then on Day 7, 0.3% DNFB solution was applied to the ear skin to induce contact dermatitis. With respect to a normal group in which the DNFB solution was not applied (Normal group), as negative control groups, a group in which no additional substances were applied in the process of inducing contact dermatitis (No Treatment group) and a group in which excipients were applied to the skin (Vehicle group), and as a positive control group, a group in which the previously-approved drug Maxidex was applied (Dexamethasone group, 0.1% Dexamethasone, 62.5 mg/animal), the test substance Brixelle (30 mg/kg) was applied to the skin every day from Day 0, thus to evaluate its effectiveness. Clinical symptoms were evaluated during the process of inducing contact dermatitis, and skin tissues were secured after the survival test was completed for further analysis.
Ear thickness was measured to evaluate edema, a clinical symptom of contact dermatitis. […] The results of the graph were expressed as mean±SEM. […]

[3] = tested on: HDM-induced atopic dermatitis mouse model; experiment: HDM-induced atopic dermatitis mouse model (1), dose dependence; assay type: in vivo, NC/Nga female mice; settings: 0.1% Dexamethasone, 62.5 mg/animal
Experimental: (§1) An HDM-induced atopic dermatitis mouse model was created by applying HDM antigen ointment to the back and ear skin of 6 to 10-week-old NC/Nga female mice a total of 7 times on Days 0, 7, 10, 14, 17, 21 and 24. […] Clinical symptoms were evaluated during the process of inducing atopic dermatitis, and skin tissues were secured after the survival test was completed for further analysis.
(§2) To quantify the clinical symptoms of atopic dermatitis, for four (4) clinical index items including 1) erythema/hemorrhage, 2) scarring/dryness, 3) edema and 4) excoriation/maceration (erosion), a clinical score was measured on a Likert scale out of 3. H&E staining was performed to observe histological changes in the skin for atopic dermatitis, while dihydroethidium (DHE) staining was performed to measure ROS in skin tissues. Further, in order to identify the mast cells and eosinophils infiltrated in the skin tissues, Toluidine blue staining and Congo red staining were performed, respectively. The results of the graph were expressed as mean±SEM. The statistical analysis was performed using the GraphPad program to confirm statistical significance with the Vehicle group through one-way ANOVA, followed by Dunnett's multiple comparison method (*p<0.05, **p<0.01, ***p<0.001, ****p<0.0001).

[4] = tested on: HDM-induced atopic dermatitis mouse model; experiment: HDM-induced atopic dermatitis mouse model (2), comparison with approved drugs; assay type: in vivo, NC/Nga female mice; settings: 0.1% Dexamethasone, 62.5 mg/animal
Experimental: as §1
as §2, with “respectively. To measure IL-4 and IL-13, which are inflammatory mediators known to be highly related to atopic dermatitis, ELISA was performed on the skin tissues.” for “respectively.”

Structure (SMILES): CCC(=O)O[C@]1(C(=O)CCl)[C@@H](C)C[C@H]2[C@@H]3CCC4=CC(=O)C=C[C@]4(C)[C@@]3(F)[C@@H](O)C[C@@]21C [Clobetasol propionate]
- clinical score (modified PASI) [1]: 7.25±0.21

Structure (SMILES): C[C@@H]1C[C@H]2[C@@H]3CCC4=CC(=O)C=C[C@]4(C)[C@@]3(F)[C@@H](O)C[C@]2(C)[C@@]1(O)C(=O)CO [Dexamethasone]
- thickness of the ear skin [2]: 0.67±0.02
- clinical score (atopic dermatitis) ([3]; topical daily from Day 7, Vehicle 9.44±0.77, mean±SEM): 4.90±0.76
- eosinophil infiltration (Congo red staining) ([3]; Vehicle 35.50±1.37): 18.88±1.64
- mast cell infiltration (Toluidine blue staining) ([3]; Vehicle 52.69±2.19): 27.38±3.19
- clinical score (atopic dermatitis) ([4]; topical daily from Day 7, Vehicle 9.58±0.64): 3.75±0.99
- eosinophil infiltration (Congo red staining) ([4]; Vehicle 40.06±5.95): 10.25±2.56
- mast cell infiltration (Toluidine blue staining) ([4]; Vehicle 56.81±1.99): 20.69±5.25
